Reference: PubChem BioAssay (NCI)
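1) Cells in 96-well plates. 2) Compound, 48 h, 5 concentrations. 3) Linear interpolation between surrounding doses. 4) Unreached endpoint = highest concentration. The concentration for 50% growth inhibition is given as GI50. The concentration for full growth arrest is given as TGI.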

How the values were obtained:
Assay in all cases: inhibition of tumour cell growth, NCI panel, 48 h
[1] = tested on: M14 melanoma
[2] = tested on: NCI/ADR-RES ovarian
[3] = tested on: NCI-H460 lung
[4] = tested on: NCI-H23 lung
[5] = tested on: OVCAR-8 ovarian
[6] = tested on: SK-MEL-2 melanoma
[7] = tested on: SF-295 CNS
[8] = tested on: A549 NSCLC
[9] = tested on: ACHN renal
[10] = tested on: MOLT-4 leukemia
[11] = tested on: SF-539 CNS
[12] = tested on: EKVX NSCLC
[13] = tested on: MALME-3M melanoma
[14] = tested on: MDA-MB-468 breast
[15] = tested on: PC-3 prostate
[16] = tested on: A498 renal
[17] = tested on: OVCAR-5 ovarian
[18] = tested on: SR leukemia
[19] = tested on: UACC-257 melanoma
[20] = tested on: OVCAR-3 ovarian
[21] = tested on: 786-0 renal
[22] = tested on: HCT-116 colon
[23] = tested on: SK-OV-3 ovarian
[24] = tested on: TK-10 renal
[25] = tested on: SK-MEL-5 melanoma
[26] = tested on: SK-MEL-28 melanoma
[27] = tested on: RPMI-8226 leukemia
[28] = tested on: SF-268 CNS
[29] = tested on: KM12 colon
[30] = tested on: HCC-2998 colon
[31] = tested on: RXF 393 renal
[32] = tested on: HL-60(TB) leukemia
[33] = tested on: HOP-92 NSCLC
[34] = tested on: MCF7 breast
[35] = tested on: U251 CNS
[36] = tested on: CAKI-1 renal
[37] = tested on: HS 578T breast
[38] = tested on: NCI-H522 lung
[39] = tested on: NCI-H226 lung
[40] = tested on: K-562 leukemia
[41] = tested on: HCT-15 colon
[42] = tested on: SNB-19 CNS
[43] = tested on: LOX IMVI melanoma
[44] = tested on: SNB-75 CNS
[45] = tested on: MDA-MB-231 breast
[46] = tested on: HT29 colon
[47] = tested on: COLO 205 colon
[48] = tested on: BT-549 breast
[49] = tested on: UACC-62 melanoma
[50] = tested on: OVCAR-4 ovarian
[51] = tested on: DU-145 prostate
[52] = tested on: SW-620 colon
[53] = tested on: IGROV1 ovarian
[54] = tested on: MDA-MB-435
[55] = tested on: CCRF-CEM leukemia
[56] = tested on: T-47D breast
[57] = tested on: UO-31 renal
[58] = tested on: HOP-62 NSCLC
[59] = tested on: SN12C renal

Q: What does the source list for `Cc1ccc(C(=O)CSc2nnc(-c3c[nH]c4ccccc34)n2-c2ccccc2)cc1`?
A: GI50 [1]: 32.1 µM; TGI [1]: > 100 µM; GI50 [2]: 11.9 µM; TGI [2]: 30.2 µM; GI50 [3]: 15.2 µM; TGI [3]: 31 µM; GI50 [4]: 13.7 µM; TGI [4]: 27.5 µM; GI50 [5]: 24.5 µM; TGI [5]: > 100 µM; GI50 [6]: 30.2 µM; TGI [6]: > 100 µM; GI50 [7]: 12.6 µM; TGI [7]: 25.9 µM; GI50 [8]: 13.9 µM; TGI [8]: 48.5 µM; GI50 [9]: 13.7 µM; TGI [9]: 29.2 µM; GI50 [10]: 21.8 µM; TGI [10]: > 100 µM; GI50 [11]: 15 µM; TGI [11]: 28.5 µM; GI50 [12]: 19 µM; TGI [12]: 98.9 µM; GI50 [13]: 16.2 µM; TGI [13]: 36.2 µM; GI50 [14]: 12.8 µM; TGI [14]: 32.3 µM; GI50 [15]: 12.4 µM; TGI [15]: 37.8 µM; GI50 [16]: 22.1 µM; TGI [16]: 69.4 µM; GI50 [17]: 19.4 µM; TGI [17]: 37.2 µM; GI50 [18]: 42 µM; TGI [18]: > 100 µM; GI50 [19]: 28.9 µM; TGI [19]: > 100 µM; GI50 [20]: 18 µM; TGI [20]: 43.3 µM; GI50 [21]: 14.7 µM; TGI [21]: 31.2 µM; GI50 [22]: 18.7 µM; TGI [22]: 60.4 µM; GI50 [23]: 17 µM; TGI [23]: 33.1 µM; GI50 [24]: 23.2 µM; TGI [24]: 44.4 µM; GI50 [25]: 16.5 µM; TGI [25]: 39.1 µM; GI50 [26]: 19.6 µM; TGI [26]: 52.1 µM; GI50 [27]: 29.8 µM; TGI [27]: > 100 µM; GI50 [28]: 24.2 µM; TGI [28]: 78.9 µM; GI50 [29]: 36.1 µM; TGI [29]: > 100 µM; GI50 [30]: 20 µM; TGI [30]: 51.7 µM; GI50 [31]: 13.6 µM; TGI [31]: 28.9 µM; GI50 [32]: 30.8 µM; TGI [32]: > 100 µM; GI50 [33]: 14.7 µM; TGI [33]: 34.7 µM; GI50 [34]: 15.7 µM; TGI [34]: 39.2 µM; GI50 [35]: 23.6 µM; TGI [35]: 65.6 µM; GI50 [36]: 14.9 µM; TGI [36]: 29.8 µM; GI50 [37]: 14.1 µM; TGI [37]: 56.3 µM; GI50 [38]: 16.3 µM; TGI [38]: 43.7 µM; GI50 [39]: 9.22 µM; TGI [39]: 26.1 µM; GI50 [40]: 22.1 µM; TGI [40]: > 100 µM; GI50 [41]: 22.6 µM; TGI [41]: > 100 µM; GI50 [42]: 15.8 µM; TGI [42]: 34.5 µM; GI50 [43]: 14.3 µM; TGI [43]: 27.3 µM; GI50 [44]: 12.9 µM; TGI [44]: 29.6 µM; GI50 [45]: 15.4 µM; TGI [45]: 32.6 µM; GI50 [46]: 15.6 µM; TGI [46]: 50.5 µM; GI50 [47]: 34.4 µM; TGI [47]: > 100 µM; GI50 [48]: 25.1 µM; TGI [48]: 46.7 µM; GI50 [49]: 15.3 µM; TGI [49]: 38.1 µM; GI50 [50]: 14.5 µM; TGI [50]: 41.5 µM; GI50 [51]: 44.3 µM; TGI [51]: > 100 µM; GI50 [52]: 30.3 µM; TGI [52]: > 100 µM; GI50 [53]: 16.1 µM; TGI [53]: 31.3 µM; GI50 [54]: 22.8 µM; TGI [54]: 65.4 µM; GI50 [55]: 54.4 µM; TGI [55]: > 100 µM; GI50 [56]: 24.9 µM; TGI [56]: > 100 µM; GI50 [57]: 14.2 µM; TGI [57]: 31.4 µM; GI50 [58]: 16.1 µM; TGI [58]: 35.9 µM; GI50 [59]: 19.4 µM; TGI [59]: 48.9 µM
